# Measurements taken from patent publication US5032599A, “N-(pyrrol-l-yl)pyridinamines” (Hoechst-Roussel Pharmaceuticals Inc., priority 1988, dated 1991).
# Structures can show the parent of a compound that is named as a salt.
# System: Scopolamine Induced Memory Deficit
# Test: Dark Avoidance Assay (reversal of scopolamine induced memory deficit)
# Type: in vivo
# Details: mice, retest after 24 hours
# Procedure: Dark Avoidance Asssay In this assay mice are tested for their ability to remember an unpleasant stimulus for a period of 24 hours. A mouse is placed in a chamber that contains a dark compartment; a strong incandescent light drives it to the dark compartment, where an electric shock is administered through metal plates on the floor. The animal is removed from the testing apparatus and tested again, 24 hours later, for the ability to remember the electric shock. If scolopamine, an anticholinergic that is known to cause memory impairment, is administered before an animal's initial exposure to the test chamber, the animal re-enters the dark compartment shortly after being placed in the test chamber 24 hours later. This effect of scopolamine is blocked by an active test compound, resulting in a greater interval before re-entry into the dark compartment. The results for an active compound are expressed as the percent of a group of animals in which the effect of scopolamine is blocked, as manifested by an increased interval between being placed in the test chamber and re-entering the dark compartment.
Compound,% of Animals With Scopolamine Induced Memory Deficit Reversed (5.0 mg/kg by body weight) [%],% of Animals With Scopolamine Induced Memory Deficit Reversed (2.5 mg/kg by body weight) [%],further results
CC(O)c1cccn1N(C)c1ccncc1 (stereo not drawn) [α-methyl-1-[[N-(4-pyridinyl)-N-methyl]amino]-1H-pyrrole-2-methanol maleate],19,,
CN(c1ccncc1)n1cccc1.Cl [N-Methyl-N-(1H-pyrrol-1-yl)-4-pyridinamine hydrochloride],,43,
CN(c1ccncc1)n1cccc1C=O [1-[N-Methyl-N-(4-pyridinyl)]aminopyrrole-2-carboxaldehyde maleate],,,% of Animals With Scopolamine Induced Memory Deficit Reversed (1.25 mg/kg by body weight): 60%
c1ccn(Nc2ccncc2)c1 [N-(1H-Pyrrol-1-yl)-4-pyridinamine],,,% of Animals With Scopolamine Induced Memory Deficit Reversed (0.63 mg/kg by body weight): 21%
CCN(c1ccncc1)n1cccc1Cl.Cl [N-(2-Chloro-1H-pyrrol-1-yl)-N-ethyl-4-pyridinamine hydrochloride],,33,
"CC[C@@H]1C(=O)OC[C@@H]1Cc1cncn1C [Pilocarpine, reference compound]",23,,
